# Test results taken from US5668134A, “Method for preventing or reducing photosensitivity and/or phototoxicity reactions to medications” (priority 1994, dated 1997).
# Where “and” joins values, the source holds several entries; their conditions need not be identical. Equal entries are not always repeated. Structures can show the parent of a compound that is named as a salt.
# Columns and labels:
# [1] = test system: gram-negative and gram-positive organisms; experiment: Bactericidal activity in vitro, MBC relative to MIC; assay type: cell-based
# [2] = test system: Staphylococcus saprophyticus; experiment: Activity in vitro and in clinical infections; assay type: cell-based
# Citrobacter diversus = experiment: Activity in vitro and in clinical infections; assay type: cell-based
# Enterobacter cloacae = experiment: Activity in vitro and in clinical infections; assay type: cell-based
# Escherichia coli = experiment: Activity in vitro and in clinical infections; assay type: cell-based
# Klebsiella pneumoniae = experiment: Activity in vitro and in clinical infections; assay type: cell-based
# [3] = test system: Moraxella (Branhamella) catarrhalis; experiment: Activity in vitro and in clinical infections; assay type: cell-based
# Proteus mirabills = experiment: Activity in vitro and in clinical infections; assay type: cell-based
# [4] = Solubility of lomefloxacin HCl in urine; assay type: physicochemical; settings: human
# Description: Following a single 400 mg dose of lomefloxacin HCl, the solubility of lomefloxacin HCl in urine usually exceeded its peak urinary concentration 2 to 6 fold.
# [5] = Food effect on pharmacokinetics; assay type: in vivo, human
# [6] = Pharmacokinetics in the geriatric population; assay type: in vivo, human
# Description: This slower elimination most likely reflects the decreased renal function normally observed in the geriatric population.
# [7] = Pharmacokinetics in patients with cirrhosis; assay type: in vivo, human; settings: 12 patients with cirrhosis, 400 mg single dose
# patients = experiment: Example 3: multicenter comparative safety and efficacy study, photosensitivity; assay type: in vivo, human; settings: 400 mg x 7 days
# Description: A double blind, randomized, parallel group, three-arm clinical study concerning the photosensitivity reactions caused by lomefloxacin HCl was the multicenter comparative safety and efficacy study which was conducted in Sweden. 400 mg of lomefloxacin HCl was given once a day (q.d.) for either three days or seven days. 703 patients were enrolled in this study, before newly-raised awareness of photosensitivity reactions associated with lomefloxacin HCl.
# However, about one year into the study, on Feb. 2, 1989, a letter was sent out to each of the study investigators regarding the possible risks of lomefloxacin HCl photosensitivity reactions. This information was again communicated to the study investigators at an Investigator's Meeting which was held on Jun. 8, 1989. The above-describedwarnings to study investigators apparently may have not been shared with the patients taking part in the study because photosensitivity rates for this study were reported as for […] as 10% for lomefloxacin HCl 400 mg×7 days.
# [8] = test system: uncomplicated urinary tract infection; experiment: Example 4: evening dosing in uncomplicated urinary tract infection; assay type: in vivo, human; settings: 200 mg at night for 3 nights
# Description: Patients with uncomplicated urinary tract infection were randomized to receive lomefloxacin HCl 200 mg taken at night for 3 nights and trimethoprim in a double-blind study.
# healthy male volunteers = settings: lomefloxacin 400 mg BID, ciprofloxacin 750 mg BID, 14 days, UVA and UVA/UVB
# Description: This study was a single center, open label, multiple does, parallel, randomized study in healthy male volunteers.
# Drug administration began on day three. Single dermatological sites were chosen on each of the subjects to be the site which was to be evaluated over time. Twenty joules of radiation were administered to these sites on day 1, day 6 and day 16. Also, graded UVA-UVB exposure was performed on days 2, 7 and 16. The dermatological responses were scored at 1, 24 and 48 hours after each UVA exposure and at 24 hours after the combined UVA-UVB exposure. The definitions which were employed in interpreting this study were that photosensitivity was to be assessed by exposure duration associated with the smallest dermatological response score above zero, which was defined as the minimal erythrogenic dose after the UVA-UVB exposure. The photosensitivity and/or phototoxicity reaction was taken by definition to be an increase of equal to or greater than 1 unit in what was defined as a dermatological response over baseline values after the UVA exposure.
# [9] = test system: skin of healthy volunteers; settings: in vivo
# Description: (§1) The number of skin patches with edema, or local swelling of the skin surface, were also counted. MEDs were measured separately for UVA and UVB radiation, and for UVA radiation alone. The baseline MED was defined in the manner described hereinabove. The 24 hour evaluation was allowed to be performed in the morning of Study Day 1. Severity of reactions causing edema and/or blisters were graded under the following grading system:
# (§2) Severity was assessed by comparing the numbers of subjects with responses graded as 2 (edema) or 3 (blisters).
# [10] = in vivo
# [11] = Physicochemical properties of lomefloxacin HCl
# [12] = test system: skin of healthy volunteers; experiment: Example 5: severity of radiation-induced photoreactions (edema or blisters)
# Description: as §1, §2
# [13] = UVA & UVB, a.m., 0 h post-radiation
# [14] = UVA & UVB, a.m., 3 h post-radiation
# [15] = UVA & UVB, a.m., 6 h post-radiation
# [16] = UVA & UVB, a.m., 24 h post-radiation
# [17] = UVA & UVB, a.m., 48 h post-radiation
# [18] = UVA & UVB, a.m., 72 h post-radiation
# [19] = UVA & UVB, p.m., 0 h post-radiation
# [20] = UVA & UVB, p.m., 3 h post-radiation
# [21] = UVA & UVB, p.m., 6 h post-radiation
# [22] = UVA & UVB, p.m., 24 h post-radiation
# [23] = UVA & UVB, p.m., 48 h post-radiation
# [24] = UVA & UVB, p.m., 72 h post-radiation
structure (smiles),measurement,setting,value
"CCn1cc(C(=O)O)c(=O)c2cc(F)c(N3CCNC(C)C3)c(F)c21 (racemic) [lomefloxacin HCl, monohydrochloride salt of (±)-1-ethyl-6,8-difluoro-1,4-dihydro-7-(3-methyl-1-piperazinyl)-4-oxo-3-quinolinecarboxylic acid]",MBC relative to MIC,"[1]; generally, except staphylococci",≤ 2 factor
same,antibacterial activity,[1]; in vitro,bactericidal agent with in vitro activity against a wide range of gram-negative and gram-positive organisms
same,activity against most strains,[2],active against most strains
same,activity against most strains,Citrobacter diversus,active against most strains
same,activity against most strains,Enterobacter cloacae,active against most strains
same,activity against most strains,Escherichia coli,active against most strains
same,activity against most strains,Klebsiella pneumoniae,active against most strains
same,activity against most strains,[3],active against most strains
same,activity against most strains,Proteus mirabills,active against most strains
same,solubility,[4]; pH 5.2,7800 µg/mL
same,solubility,[4]; pH 6.5,2400 µg/mL
same,solubility,[4]; pH 8.12,3030 µg/mL
same,decrease of Cmax with food,[5],18%
same,decrease of extent of absorption (AUC) with food,[5],12%
same,delay of Tmax with food,[5],41%
same,Tmax,"[5]; human, in vivo, with food",2 h
same,increase of AUC,[6]; elderly vs younger subjects,approximately 33%
same,reduction of plasma clearance,[6]; elderly vs younger subjects,approximately 25%
same,half-life,"[6]; human, in vivo, 16 elderly volunteers, single 400 mg dose",8 h
same,Cmax,"[6]; human, plasma, 16 elderly volunteers, single 400 mg dose, read-out: peak plasma concentration, mean",4200 ng/mL
same,drug absorption in the elderly,[6]; single 400 mg dose,unaffected in the elderly
same,"changes in rate or extent of exposure (Cmax, Tmax, t1/2 or AUC)",[7],no significant changes
same,photosensitivity rate,patients,10%
same,overall incidence of adverse events,[8],18%
same,photosensitivity reactions,[8],no photosensitivity reactions reported
same,clinical success in evaluable patients,[8]; 7-9 days posttreatment,98.1%
same,rate of photosensitivity reactions,healthy male volunteers,64%
same,severity of UVA+UVB radiation-induced photoreactions versus baseline,[9],no change
same,"subjects with edema or blisters on the sites of radiation, UVA",[9],sixty-nine
same,time of peak plasma concentration following dosing,[10],approximately two
same,solubility in alcohol,[11],practically insoluble in alcohol
same,solubility in water,[11],slightly soluble in water
same,"NUMBER OF SUBJECTS WITH SCORE >= 2, COUNT",[12]; [13],0 subjects
same,"SUBJECTS WITH SCORE >= 2, PERCENT",[12]; [13],0.00%
same,"NUMBER OF SUBJECTS WITH SCORE >= 2, COUNT",[12]; [14],0 subjects
same,"SUBJECTS WITH SCORE >= 2, PERCENT",[12]; [14],0.00%
same,"NUMBER OF SUBJECTS WITH SCORE >= 2, COUNT",[12]; [15],2 subjects
same,"SUBJECTS WITH SCORE >= 2, PERCENT",[12]; [15],15.38%
same,"NUMBER OF SUBJECTS WITH SCORE >= 2, COUNT",[12]; [16],0 subjects
same,"SUBJECTS WITH SCORE >= 2, PERCENT",[12]; [16],0.00%
same,"NUMBER OF SUBJECTS WITH SCORE >= 2, COUNT",[12]; [17],0 subjects
same,"SUBJECTS WITH SCORE >= 2, PERCENT",[12]; [17],0.00%
same,"NUMBER OF SUBJECTS WITH SCORE >= 2, COUNT",[12]; [18],0 subjects
same,"SUBJECTS WITH SCORE >= 2, PERCENT",[12]; [18],0.00%
same,"NUMBER OF SUBJECTS WITH SCORE >= 2, COUNT",[12]; [19],0 subjects
same,"SUBJECTS WITH SCORE >= 2, PERCENT",[12]; [19],0.00%
same,"NUMBER OF SUBJECTS WITH SCORE >= 2, COUNT",[12]; [20],0 subjects
same,"SUBJECTS WITH SCORE >= 2, PERCENT",[12]; [20],0.00%
same,"NUMBER OF SUBJECTS WITH SCORE >= 2, COUNT",[12]; [21],0 subjects
same,"SUBJECTS WITH SCORE >= 2, PERCENT",[12]; [21],0.00%
same,"NUMBER OF SUBJECTS WITH SCORE >= 2, COUNT",[12]; [22],1 subjects
same,"SUBJECTS WITH SCORE >= 2, PERCENT",[12]; [22],7.69%
same,"NUMBER OF SUBJECTS WITH SCORE >= 2, COUNT",[12]; [23],0 subjects
same,"SUBJECTS WITH SCORE >= 2, PERCENT",[12]; [23],0.00%
same,"NUMBER OF SUBJECTS WITH SCORE >= 2, COUNT",[12]; [24],0 subjects
same,"SUBJECTS WITH SCORE >= 2, PERCENT",[12]; [24],0.00%
same,"NUMBER OF SUBJECTS WITH SCORE >= 2, COUNT","[12]; UVA, a.m., 0 h post-radiation",1 subjects
same,"SUBJECTS WITH SCORE >= 2, PERCENT","[12]; UVA, a.m., 0 h post-radiation",7.69%
same,"NUMBER OF SUBJECTS WITH SCORE >= 2, COUNT","[12]; UVA, a.m., 3 h post-radiation",6 subjects
same,"SUBJECTS WITH SCORE >= 2, PERCENT","[12]; UVA, a.m., 3 h post-radiation",46.15%
same,"NUMBER OF SUBJECTS WITH SCORE >= 2, COUNT","[12]; UVA, a.m., 6 h post-radiation",9 subjects
same,"SUBJECTS WITH SCORE >= 2, PERCENT","[12]; UVA, a.m., 6 h post-radiation",69.23% and 69%
same,"NUMBER OF SUBJECTS WITH SCORE >= 2, COUNT","[12]; UVA, a.m., 24 h post-radiation",5 subjects
same,"SUBJECTS WITH SCORE >= 2, PERCENT","[12]; UVA, a.m., 24 h post-radiation",38.46%
same,"NUMBER OF SUBJECTS WITH SCORE >= 2, COUNT","[12]; UVA, a.m., 48 h post-radiation",2 subjects
same,"SUBJECTS WITH SCORE >= 2, PERCENT","[12]; UVA, a.m., 48 h post-radiation",15.38%
same,"NUMBER OF SUBJECTS WITH SCORE >= 2, COUNT","[12]; UVA, a.m., 72 h post-radiation",0 subjects
same,"SUBJECTS WITH SCORE >= 2, PERCENT","[12]; UVA, a.m., 72 h post-radiation",0.00%
same,"NUMBER OF SUBJECTS WITH SCORE >= 2, COUNT","[12]; UVA, p.m., 0 h post-radiation",0 subjects
same,"SUBJECTS WITH SCORE >= 2, PERCENT","[12]; UVA, p.m., 0 h post-radiation",0.00%
same,"NUMBER OF SUBJECTS WITH SCORE >= 2, COUNT","[12]; UVA, p.m., 3 h post-radiation",0 subjects
same,"SUBJECTS WITH SCORE >= 2, PERCENT","[12]; UVA, p.m., 3 h post-radiation",0.00%
same,"NUMBER OF SUBJECTS WITH SCORE >= 2, COUNT","[12]; UVA, p.m., 6 h post-radiation",0 subjects
same,"SUBJECTS WITH SCORE >= 2, PERCENT","[12]; UVA, p.m., 6 h post-radiation",0.00%
same,"NUMBER OF SUBJECTS WITH SCORE >= 2, COUNT","[12]; UVA, p.m., 24 h post-radiation",0 subjects
same,"SUBJECTS WITH SCORE >= 2, PERCENT","[12]; UVA, p.m., 24 h post-radiation",0.00%
same,"NUMBER OF SUBJECTS WITH SCORE >= 2, COUNT","[12]; UVA, p.m., 48 h post-radiation",0 subjects
same,"SUBJECTS WITH SCORE >= 2, PERCENT","[12]; UVA, p.m., 48 h post-radiation",0.00%
same,"NUMBER OF SUBJECTS WITH SCORE >= 2, COUNT","[12]; UVA, p.m., 72 h post-radiation",0 subjects
same,"SUBJECTS WITH SCORE >= 2, PERCENT","[12]; UVA, p.m., 72 h post-radiation",0.00%
